How the values were obtained:
Test in all cases: B1 Post-emergence efficacy, glasshouse pot test
Format in all cases: in vivo
Settings in all cases: post-emergence application, 1000 g/ha, evaluated after 13 days
[1] = system: Echinochloa crus-galli (ECHCG)
Procedure: (§1) B1 Post-Emergence Efficacy Seeds of a variety of test species are sown in standard soil in pots:—Solanum nigrum (SOLNI), Amaranthus retoflexus (AMARE), Setaria faberi (SETFA), Alopecurus myosuroides (ALOMY), Echinochloa crus-galli (ECHCG), Ipomoea hederacea (IPOHE), Lolium perenne (LOLPE). After 8 days cultivation (post-emergence) under controlled conditions in a glasshouse (at 24/16° C., day/night; 14 hours light; 65% humidity), the plants are sprayed with an aqueous spray solution derived from the formulation of the technical active ingredient in acetone/water (50:50) solution containing 0.5% Tween 20 (polyoxyethelyene sorbitan monolaurate, CAS RN 9005-64-5). Compounds are applied at 1000 g/ha. The test plants are then grown in a glasshouse under controlled conditions in a glasshouse (at 24/16° C., day/night; 14 hours light; 65% humidity) and watered twice daily. After 13 days, the test is evaluated for the percentage damage caused to the plant. The biological activities are assessed on a five point scale (5=80-100%; 4=60-79%; 3=40-59%; 2=20-39%; 1=0-19%). A blank value in the table is indicative that the compound was not tested on that species.

Lolium perenne (LOLPE) = system: Lolium perenne (LOLPE)
Procedure: as §1

Solanum nigrum (SOLNI) = system: Solanum nigrum (SOLNI)
Procedure: as §1

Setaria faberi (SETFA) = system: Setaria faberi (SETFA)
Procedure: as §1

[2] = system: Amaranthus retoflexus (AMARE)
Procedure: as §1

[3] = system: Ipomoea hederacea (IPOHE)
Procedure: as §1

Compound	ECHCG: percentage damage caused to the plant (five point scale) [1]	LOLPE: percentage damage caused to the plant (five point scale) (Lolium perenne (LOLPE))	SOLNI: percentage damage caused to the plant (five point scale) (Solanum nigrum (SOLNI))	SETFA: percentage damage caused to the plant (five point scale) (Setaria faberi (SETFA))	AMARE: percentage damage caused to the plant (five point scale) [2]	IPOHE: percentage damage caused to the plant (five point scale) [3]
Cc1nn(C)c(=O)c(-c2c(C(F)(F)F)ccc(F)c2OCc2ccccc2)c1O [Compound 1.069]	5 (5=80-100%)	3 (3=40-59%)	5 (5=80-100%)	5 (5=80-100%)	3 (3=40-59%)	5 (5=80-100%)
Cc1nn(C)c(=O)c(-c2c(Cl)ccc(F)c2OCc2ccccc2)c1O [Compound 1.014]	4 (4=60-79%)	3 (3=40-59%)	5 (5=80-100%)	5 (5=80-100%)	4 (4=60-79%)	5 (5=80-100%)
Cn1nc(S(C)(=O)=O)c(O)c(-c2c(F)ccc(Cl)c2OCc2ccccc2)c1=O [Compound 1.079]	1 (1=0-19%)	1 (1=0-19%)	5 (5=80-100%)	1 (1=0-19%)	1 (1=0-19%)	5 (5=80-100%)
Cc1nn(C)c(=O)c(-c2c(Cl)cc(Cl)cc2OCc2ccccc2)c1O [Compound 1.006]	3 (3=40-59%)	2 (2=20-39%)	5 (5=80-100%)	3 (3=40-59%)	5 (5=80-100%)	5 (5=80-100%)
Cn1nc([S+](C)[O-])c(O)c(-c2c(Cl)ccc(Cl)c2OCc2ccccc2)c1=O (stereo not drawn) [Compound 1.083]	1 (1=0-19%)	2 (2=20-39%)	5 (5=80-100%)	3 (3=40-59%)	1 (1=0-19%)	5 (5=80-100%)
CSc1nn(C)c(=O)c(-c2c(Cl)ccc(Cl)c2OCc2ccccc2)c1O [Compound 1.086]	2 (2=20-39%)	4 (4=60-79%)	5 (5=80-100%)	4 (4=60-79%)	3 (3=40-59%)	5 (5=80-100%)
CCc1nn(C)c(=O)c(-c2c(F)ccc(Cl)c2OCc2ccccc2)c1O [Compound 1.010]	4 (4=60-79%)	4 (4=60-79%)	5 (5=80-100%)	3 (3=40-59%)	5 (5=80-100%)	5 (5=80-100%)
Cc1nn(C2CC2)c(=O)c(-c2c(Cl)ccc(Cl)c2OCc2ccccc2)c1O [Compound 1.041]	5 (5=80-100%)	4 (4=60-79%)	5 (5=80-100%)	5 (5=80-100%)	5 (5=80-100%)	5 (5=80-100%)
CCc1nn(C)c(=O)c(-c2c(C(F)(F)F)ccc(Cl)c2OCc2ccccc2)c1O [Compound 1.072]	4 (4=60-79%)	2 (2=20-39%)	5 (5=80-100%)	5 (5=80-100%)	2 (2=20-39%)	5 (5=80-100%)
Cn1nc(C(F)(F)F)c(O)c(-c2c(F)ccc(Cl)c2OCc2ccccc2)c1=O [Compound 1.074]	5 (5=80-100%)	5 (5=80-100%)	5 (5=80-100%)	5 (5=80-100%)	5 (5=80-100%)	5 (5=80-100%)
Cc1nn(C)c(=O)c(-c2cccc(Cl)c2OCc2ccccc2)c1O [Compound 1.003]	5 (5=80-100%)	5 (5=80-100%)	5 (5=80-100%)	3 (3=40-59%)	4 (4=60-79%)	5 (5=80-100%)
Cc1nn(C)c(=O)c(-c2ccccc2OCc2ccccc2)c1O [Compound 1.002]	1 (1=0-19%)	1 (1=0-19%)	5 (5=80-100%)	1 (1=0-19%)	4 (4=60-79%)	1 (1=0-19%)
CN(C)c1nn(C)c(=O)c(-c2c(Cl)ccc(Cl)c2OCc2ccccc2)c1O [Compound 1.087]	5 (5=80-100%)	5 (5=80-100%)	5 (5=80-100%)	5 (5=80-100%)	5 (5=80-100%)	5 (5=80-100%)
Cn1nc(S(C)(=O)=O)c(O)c(-c2c(Cl)ccc(Cl)c2OCc2ccccc2)c1=O [Compound 1.082]	1 (1=0-19%)	1 (1=0-19%)	5 (5=80-100%)	2 (2=20-39%)	1 (1=0-19%)	3 (3=40-59%)
Cn1nc(C(F)(F)F)c(O)c(-c2c(C(F)(F)F)ccc(Cl)c2OCc2ccccc2)c1=O [Compound 1.071]	4 (4=60-79%)	3 (3=40-59%)	5 (5=80-100%)	5 (5=80-100%)	3 (3=40-59%)	5 (5=80-100%)
Cn1nc(C(F)(F)F)c(O)c(-c2c(Cl)ccc(Cl)c2OCc2ccccc2)c1=O [Compound 1.075]	5 (5=80-100%)	4 (4=60-79%)	5 (5=80-100%)	5 (5=80-100%)	4 (4=60-79%)	5 (5=80-100%)
